Measured values reported in ChEMBL document CHEMBL5143613, “Discovery of 6,7-dihydro-5H-pyrrolo[3,4-d] pyrimidine derivatives as a new class of ATR inhibitors” (Bioorg Med Chem Lett, 2022).

Legend:
[1] = Inhibition of recombinant full-length human ATR M211T mutant using GST-cMyc-p53 as substrate incubated for 40 mins by HTRF assay
A2780 [2] = test: Anti-tumor activity against human A2780 cells assessed as inhibition of cell viability incubated for 72 hrs by MTT assay; format: functional, cell-based; settings: A2780, 72 h
MDA-MB-436 = test: Anti-tumor activity against human MDA-MB-436 cells assessed as inhibition of cell viability incubated for 72 hrs by MTT assay; format: functional, cell-based; settings: MDA-MB-436, 72 h
MDA-MB-468 = test: Anti-tumor activity against human MDA-MB-468 cells assessed as inhibition of cell viability incubated for 72 hrs by MTT assay; format: functional, cell-based; settings: MDA-MB-468, 72 h
LoVo = test: Anti-tumor activity against human LoVo cells assessed as inhibition of cell viability incubated for 72 hrs by MTT assay; format: functional, cell-based
SW-620 = test: Anti-tumor activity against human SW-620 cells assessed as inhibition of cell viability incubated for 72 hrs by MTT assay; format: functional, cell-based; settings: SW-620, 72 h
Granta-519 = test: Anti-tumor activity against human Granta-519 cells assessed as inhibition of cell viability incubated for 72 hrs by MTT assay; format: functional, cell-based; settings: Granta-519, 72 h
CWR22R = test: Anti-tumor activity against human 22Rv1 cells assessed as inhibition of cell viability incubated for 72 hrs by MTT assay; format: functional, cell-based; settings: 22Rv1, 72 h
NCI-H23 = test: Anti-tumor activity against human NCI-H23 cells assessed as inhibition of cell viability incubated for 72 hrs by MTT assay; format: functional, cell-based; settings: NCI-H23, 72 h
A2780 [3] = test: Inhibition of colony formation in human A2780 cells by crystal violet staining based analysis; format: functional, cell-based; settings: dose 0.03-3 µM, DDE = dose-dependent effect
A2780 [4] = test: Anti-migration activity against human A2780 cells assessed as inhibition of cell migration at 0.1 to 1 uM by wound healing assay; format: functional, cell-based; settings: dose 0.1-1 µM, time 24-48 hrs, TDE = time-dependent effect
A2780 [5] = test: Anti-migration activity against human A2780 cells assessed as inhibition of cell migration incubated for 24 to 48 hrs by wound healing assay; format: functional, cell-based; settings: dose 0.1-1 µM, time 24-48 hrs, DDE = dose-dependent effect
[6] = target: Serine/threonine-protein kinase ATR (Homo sapiens) (UniProt Q13535); test: Inhibition of ATR in HU-treated human A2780 cells assessed as inhibition of ATR phosphorylation by Western blot assay; format: cell-based; settings: dose 0.03-10 µM, DDE = dose-dependent effect
Sequence of Serine/threonine-protein kinase ATR (Homo sapiens) (Q13535 whole entry, looked up): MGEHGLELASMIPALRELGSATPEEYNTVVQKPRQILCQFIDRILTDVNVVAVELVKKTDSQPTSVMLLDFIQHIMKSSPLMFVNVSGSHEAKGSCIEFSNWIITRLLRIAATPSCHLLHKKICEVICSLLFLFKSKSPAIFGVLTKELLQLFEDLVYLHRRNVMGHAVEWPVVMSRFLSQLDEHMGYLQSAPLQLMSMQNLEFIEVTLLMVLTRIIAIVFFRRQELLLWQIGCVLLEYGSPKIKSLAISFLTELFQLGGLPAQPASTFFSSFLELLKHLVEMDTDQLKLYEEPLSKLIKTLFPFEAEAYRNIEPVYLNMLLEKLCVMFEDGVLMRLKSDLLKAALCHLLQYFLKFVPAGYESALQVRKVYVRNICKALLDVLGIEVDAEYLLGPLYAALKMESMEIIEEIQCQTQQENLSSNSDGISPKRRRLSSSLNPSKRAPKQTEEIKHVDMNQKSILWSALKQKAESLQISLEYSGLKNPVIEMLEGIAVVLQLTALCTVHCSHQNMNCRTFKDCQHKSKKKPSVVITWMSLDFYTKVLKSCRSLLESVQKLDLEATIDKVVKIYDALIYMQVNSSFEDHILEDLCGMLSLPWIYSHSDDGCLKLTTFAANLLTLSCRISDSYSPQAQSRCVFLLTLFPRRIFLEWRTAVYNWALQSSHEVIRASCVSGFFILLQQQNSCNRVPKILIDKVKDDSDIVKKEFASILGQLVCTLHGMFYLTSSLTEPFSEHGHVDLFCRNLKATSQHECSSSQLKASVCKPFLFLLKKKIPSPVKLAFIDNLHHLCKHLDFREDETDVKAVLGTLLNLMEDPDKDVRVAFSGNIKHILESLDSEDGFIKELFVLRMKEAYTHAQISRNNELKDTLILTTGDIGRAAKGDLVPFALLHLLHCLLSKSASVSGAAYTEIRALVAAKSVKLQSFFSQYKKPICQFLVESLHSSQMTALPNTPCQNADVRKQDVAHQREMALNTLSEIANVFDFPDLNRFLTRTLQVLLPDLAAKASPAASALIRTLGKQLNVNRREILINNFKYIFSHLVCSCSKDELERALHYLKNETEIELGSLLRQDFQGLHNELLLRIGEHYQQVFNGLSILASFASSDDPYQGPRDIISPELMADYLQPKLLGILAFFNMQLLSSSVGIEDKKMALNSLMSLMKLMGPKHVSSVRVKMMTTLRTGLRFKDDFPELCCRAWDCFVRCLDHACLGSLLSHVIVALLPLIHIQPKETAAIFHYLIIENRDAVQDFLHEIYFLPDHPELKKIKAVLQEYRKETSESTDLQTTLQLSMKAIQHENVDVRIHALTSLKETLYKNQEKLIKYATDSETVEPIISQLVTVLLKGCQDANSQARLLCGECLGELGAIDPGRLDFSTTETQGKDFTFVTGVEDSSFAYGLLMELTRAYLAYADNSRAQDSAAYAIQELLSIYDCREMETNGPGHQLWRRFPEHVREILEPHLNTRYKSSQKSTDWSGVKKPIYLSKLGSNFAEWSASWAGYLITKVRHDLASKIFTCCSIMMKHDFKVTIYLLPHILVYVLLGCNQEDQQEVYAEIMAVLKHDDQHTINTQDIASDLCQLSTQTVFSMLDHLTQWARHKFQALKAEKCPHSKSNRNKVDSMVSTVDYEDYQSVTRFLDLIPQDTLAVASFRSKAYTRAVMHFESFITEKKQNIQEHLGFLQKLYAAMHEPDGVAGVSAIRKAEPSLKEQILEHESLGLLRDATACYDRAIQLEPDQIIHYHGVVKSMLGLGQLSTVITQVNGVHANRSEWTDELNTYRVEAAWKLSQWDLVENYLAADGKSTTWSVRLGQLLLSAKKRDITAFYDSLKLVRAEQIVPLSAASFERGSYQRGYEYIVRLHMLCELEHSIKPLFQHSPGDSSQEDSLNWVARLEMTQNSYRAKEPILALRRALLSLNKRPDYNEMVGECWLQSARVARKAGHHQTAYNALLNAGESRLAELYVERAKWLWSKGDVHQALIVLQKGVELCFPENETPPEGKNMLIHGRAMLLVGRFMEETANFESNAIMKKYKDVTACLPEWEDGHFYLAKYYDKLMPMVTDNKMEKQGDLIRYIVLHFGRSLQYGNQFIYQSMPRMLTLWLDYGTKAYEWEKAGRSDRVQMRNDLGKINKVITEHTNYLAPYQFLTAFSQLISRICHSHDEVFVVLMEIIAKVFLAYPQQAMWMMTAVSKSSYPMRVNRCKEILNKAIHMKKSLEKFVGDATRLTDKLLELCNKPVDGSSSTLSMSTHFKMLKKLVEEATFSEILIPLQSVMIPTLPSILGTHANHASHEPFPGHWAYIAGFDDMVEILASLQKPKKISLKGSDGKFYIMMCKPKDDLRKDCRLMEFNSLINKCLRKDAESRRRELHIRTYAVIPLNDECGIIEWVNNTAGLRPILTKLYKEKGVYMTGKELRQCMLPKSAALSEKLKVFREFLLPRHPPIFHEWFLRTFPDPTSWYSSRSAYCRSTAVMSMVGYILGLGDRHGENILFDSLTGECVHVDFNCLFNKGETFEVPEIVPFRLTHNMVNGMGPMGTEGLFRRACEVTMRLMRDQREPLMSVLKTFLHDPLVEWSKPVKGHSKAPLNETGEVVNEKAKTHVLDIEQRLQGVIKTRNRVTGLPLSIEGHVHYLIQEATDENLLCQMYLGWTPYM

[7] = target: Serine/threonine-protein kinase ATR (Homo sapiens) (UniProt Q13535); test: Inhibition of ATR in HU-treated human A2780 cells assessed as inhibition of Chk1 phosphorylation at Ser345 residue by Western blot assay; format: cell-based; settings: dose 0.03-10 µM, DDE = dose-dependent effect
[8] = target: Serine/threonine-protein kinase ATR (Homo sapiens) (UniProt Q13535); test: Inhibition of ATR in human A2780 cells assessed as induction of DNA damage incubated for 3 days by DAPI staining based immunofluorescence analysis; format: cell-based; settings: dose 1-10 µM, time 3.0 day, DDE = dose-dependent effect
[9] = target: Serine/threonine-protein kinase mTOR (Homo sapiens, UniProt P42345); test: Inhibition of human full length recombinant mTOR in presence of [gamma-33P]ATP incubated for 40 mins by radiometric scintillation counting analysis
FKBP12A/mTOR = FKBP12A/mTOR (Homo sapiens, UniProt P42345+P62942); test: Inhibition of human full length recombinant mTOR/FKBP12 in presence of [gamma-33P]ATP incubated for 40 mins by radiometric scintillation counting analysis; format: protein-complex assay
Sequence of FKBP12A/mTOR (P62942 2-108 limits assumed, other chains not shown): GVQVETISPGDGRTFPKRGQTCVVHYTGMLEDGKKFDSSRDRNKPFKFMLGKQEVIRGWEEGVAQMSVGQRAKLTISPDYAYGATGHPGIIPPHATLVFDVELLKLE

[10] = target: PI3-kinase p110-delta/p85-alpha (Homo sapiens, UniProt O00329); test: Inhibition of recombinant human full length PI3K p110delta/p85a using phosphatidylinositol-4, 5-bisphosphate as substrate incubated for 40 mins in presence of [gamma33P]ATP by radiometric scintillation counting analysis; format: protein-complex assay
Sequence of PI3-kinase p110-delta/p85-alpha (P27986 whole entry, the tested form may be a part): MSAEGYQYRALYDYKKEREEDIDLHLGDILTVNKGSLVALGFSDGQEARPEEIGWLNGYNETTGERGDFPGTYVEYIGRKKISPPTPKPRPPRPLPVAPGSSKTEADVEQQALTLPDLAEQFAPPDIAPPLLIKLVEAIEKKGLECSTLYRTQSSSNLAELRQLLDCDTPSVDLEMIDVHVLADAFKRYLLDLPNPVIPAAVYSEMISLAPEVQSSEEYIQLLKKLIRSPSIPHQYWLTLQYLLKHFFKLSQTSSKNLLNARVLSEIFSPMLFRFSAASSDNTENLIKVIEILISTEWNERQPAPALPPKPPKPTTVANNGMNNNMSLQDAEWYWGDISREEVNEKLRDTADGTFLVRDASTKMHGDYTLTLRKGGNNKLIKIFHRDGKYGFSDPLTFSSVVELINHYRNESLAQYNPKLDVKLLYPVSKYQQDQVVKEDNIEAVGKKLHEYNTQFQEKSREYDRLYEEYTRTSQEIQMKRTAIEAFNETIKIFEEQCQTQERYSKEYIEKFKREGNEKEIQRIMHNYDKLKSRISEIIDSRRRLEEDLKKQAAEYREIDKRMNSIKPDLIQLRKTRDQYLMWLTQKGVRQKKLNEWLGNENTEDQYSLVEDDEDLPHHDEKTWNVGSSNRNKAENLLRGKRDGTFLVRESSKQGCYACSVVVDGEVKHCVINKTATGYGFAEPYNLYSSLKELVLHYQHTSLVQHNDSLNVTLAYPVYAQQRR
Sequence of PI3-kinase p110-delta/p85-alpha (O00329 whole entry, the tested form may be a part): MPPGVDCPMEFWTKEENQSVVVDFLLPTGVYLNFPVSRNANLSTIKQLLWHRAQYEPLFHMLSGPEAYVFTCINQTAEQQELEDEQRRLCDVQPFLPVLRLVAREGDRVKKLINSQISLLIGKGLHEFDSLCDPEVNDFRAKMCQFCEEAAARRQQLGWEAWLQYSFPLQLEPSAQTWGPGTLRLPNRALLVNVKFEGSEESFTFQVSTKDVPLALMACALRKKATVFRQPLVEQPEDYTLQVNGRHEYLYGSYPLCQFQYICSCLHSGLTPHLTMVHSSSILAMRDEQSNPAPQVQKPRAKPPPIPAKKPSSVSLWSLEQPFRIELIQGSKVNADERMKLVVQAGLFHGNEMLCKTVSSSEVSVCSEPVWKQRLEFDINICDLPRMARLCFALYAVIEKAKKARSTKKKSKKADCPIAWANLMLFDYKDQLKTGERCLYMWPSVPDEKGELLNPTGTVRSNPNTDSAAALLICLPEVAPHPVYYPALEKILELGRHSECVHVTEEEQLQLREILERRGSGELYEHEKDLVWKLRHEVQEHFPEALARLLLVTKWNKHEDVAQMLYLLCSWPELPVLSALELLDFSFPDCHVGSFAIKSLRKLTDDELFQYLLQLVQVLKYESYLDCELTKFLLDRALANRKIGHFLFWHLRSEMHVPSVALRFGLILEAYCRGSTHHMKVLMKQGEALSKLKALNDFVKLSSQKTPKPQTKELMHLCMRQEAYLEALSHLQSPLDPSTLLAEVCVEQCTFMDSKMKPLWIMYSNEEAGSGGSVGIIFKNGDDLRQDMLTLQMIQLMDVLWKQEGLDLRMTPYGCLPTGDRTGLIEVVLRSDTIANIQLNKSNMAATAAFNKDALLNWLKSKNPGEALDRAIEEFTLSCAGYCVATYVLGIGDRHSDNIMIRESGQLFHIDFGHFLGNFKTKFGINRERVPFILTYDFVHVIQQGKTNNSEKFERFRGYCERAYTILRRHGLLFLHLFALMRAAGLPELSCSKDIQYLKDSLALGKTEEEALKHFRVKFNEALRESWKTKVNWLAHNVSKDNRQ

[11] = target: Phosphatidylinositol 4-phosphate 3-kinase C2 domain-containing subunit alpha (Homo sapiens, UniProt O00443); test: Inhibition of human PI3K-C2alpha (299 to ens residues) using phosphatidylinositol-4, 5-bisphosphate as substrate incubated for 40 mins by HTRF assay
[12] = target: Serine/threonine-protein kinase B-raf (Homo sapiens, UniProt P15056); test: Inhibition of human recombinant B-Raf (416 to end residues) using myelin basic protein as substrate in presence of [gamma-33P]ATP incubated for 40 mins by radiometric scintillation counting analysis

Q: With `C[C@@H]1COCCN1c1nc(-c2cnc3[nH]ccc3c2)nc2c1CN(S(=O)(=O)C1CC1)C2` as the molecule, how does the IC50 [1] read?
A: 2.71 µM

Q: Which IC50 [1] does the source give for `CCC(C)C(=O)N1Cc2nc(-c3c[nH]c4ccccc34)nc(N3CCOC[C@H]3C)c2C1` (some centres undefined) here?
A: 0.026 µM

Q: Which IC50 [1] does the source give for `O=S(=O)(C1CC1)N1Cc2nc(-c3c[nH]c4ccccc34)nc(N3C[C@H]4COC[C@H]4C3)c2C1` here?
A: > 10 µM

Q: Which IC50 [1] does the source give for `O=S(=O)(C1CC1)N1Cc2nc(-c3c[nH]c4ccccc34)nc(N3C4CCC3COC4)c2C1` here?
A: 1.39 µM

Q: With `C[C@@H]1COCCN1c1nc(-c2c[nH]c3ccccc23)nc2c1CN(C(=O)[C@H]1CCCO1)C2` as the molecule, how does the IC50 [1] read?
A: 0.011 µM

Q: Which IC50 [1] does the source give for `C[C@H](CO)Nc1nc(-c2c[nH]c3ccccc23)nc2c1CN(S(=O)(=O)C1CC1)C2` here?
A: 8.36 µM

Q: Which IC50 [1] does the source give for `C[C@@H]1COCCN1c1nc(-c2c[nH]c3ccccc23)nc2c1CN(S(=O)(=O)C1CCCCC1)C2` here?
A: 0.02 µM

Q: Which IC50 [1] does the source give for `C[C@H]1COCCN1c1nc(-c2c[nH]c3ccccc23)nc2c1CN(S(=O)(=O)C1CC1)C2` here?
A: 4.95 µM

Q: With `C[C@@H]1COCCN1c1nc(-c2c[nH]c3ccccc23)nc2c1CN(C(=O)C1CCNCC1)C2` as the molecule, how does the IC50 [1] read?
A: 0.601 µM

Q: Which IC50 [1] does the source give for `C[C@@H]1COCCN1c1nc(-c2cccc3[nH]ccc23)nc2c1CN(S(=O)(=O)C1CC1)C2` here?
A: 0.053 µM

Q: For `O=S(=O)(C1CC1)N1Cc2nc(-c3c[nH]c4ccccc34)nc(N3CCOCC3)c2C1`, which IC50 [1] is on record?
A: 0.891 µM

Q: For `O=S(=O)(C1CC1)N1Cc2nc(-c3c[nH]c4ccccc34)nc(NC3COC3)c2C1`, which IC50 [1] is on record?
A: 10 µM

Q: For `C[C@@H]1COCCN1c1nc(-c2c[nH]c3ccccc23)nc2c1CN(S(=O)(=O)C1CC1)C2`, which IC50 [1] is on record?
A: 0.004 µM

Q: What about the IC50 (A2780 [2]) of the same molecule?
A: 1.35 µM

Q: What about the IC50 (MDA-MB-436) of the same molecule?
A: 1.88 µM

Q: And the IC50 (MDA-MB-468)?
A: 1.74 µM

Q: And the IC50 (LoVo)?
A: 2.11 µM

Q: What about the IC50 (SW-620) of the same molecule?
A: 3.84 µM

Q: What about the IC50 (Granta-519) of the same molecule?
A: 1.86 µM

Q: What about the IC50 (CWR22R) of the same molecule?
A: 2.48 µM

Q: What about the IC50 (NCI-H23) of the same molecule?
A: 3.48 µM

Q: For `C[C@@H]1COCCN1c1nc(-c2c[nH]c3ccccc23)nc2c1CN(C(=O)C1CC1)C2`, which IC50 [1] is on record?
A: 0.006 µM

Q: And the IC50 (A2780 [2])?
A: 1.19 µM

Q: What about the IC50 (MDA-MB-436) of the same molecule?
A: 1.29 µM

Q: And the IC50 (MDA-MB-468)?
A: 1.82 µM

Q: And the IC50 (LoVo)?
A: 2.63 µM

Q: What about the IC50 (SW-620) of the same molecule?
A: 3.96 µM

Q: And the IC50 (Granta-519)?
A: 1.63 µM

Q: And the IC50 (CWR22R)?
A: 1.45 µM

Q: What about the IC50 (NCI-H23) of the same molecule?
A: 3.35 µM

Q: Which results are given for `CC(C)S(=O)(=O)N1Cc2nc(-c3c[nH]c4ccccc34)nc(N3CCOC[C@H]3C)c2C1`?
A: IC50 [1]: 0.007 µM; IC50 (A2780 [2]): 0.67 µM; IC50 (MDA-MB-436): 0.95 µM; IC50 (MDA-MB-468): 1.42 µM; IC50 (LoVo): 0.84 µM; IC50 (SW-620): 2.15 µM; IC50 (Granta-519): 1.02 µM; IC50 (CWR22R): 1.34 µM; IC50 (NCI-H23): 2.11 µM; inhibition (A2780 [3]): Dde; Activity (A2780 [4]): Tde; Activity (A2780 [5]): Dde; inhibition [6]: Dde; inhibition [7]: Dde; inhibition [8]: Dde; IC50 [9]: 0.136 µM; IC50 (FKBP12A/mTOR): 0.125 µM; IC50 [10]: 2.15 µM; IC50 [11]: 2.72 µM; IC50 [12]: 9.44 µM

Q: Which IC50 [1] does the source give for `O=S(=O)(C1CC1)N1Cc2nc(-c3c[nH]c4ccccc34)nc(N3CC4CCC(C3)O4)c2C1` here?
A: 0.544 µM

Q: Which IC50 [1] does the source give for `O=S(=O)(C1CC1)N1Cc2nc(-c3c[nH]c4ccccc34)nc(N3CC4CC3CO4)c2C1` (centres undefined) here?
A: > 10 µM

Q: With `C[C@@H]1COCCN1c1nc(-c2c[nH]c3ccccc23)nc2c1CN(C(=O)C(C)(C)CCl)C2` as the molecule, how does the IC50 [1] read?
A: 0.01 µM

Q: With `C[C@@H]1CN(c2nc(-c3c[nH]c4ccccc34)nc3c2CN(S(=O)(=O)C2CC2)C3)C[C@H](C)O1` as the molecule, how does the IC50 [1] read?
A: > 10 µM

Q: For `C[C@@H]1COCCN1c1nc(-c2c[nH]c3ncccc23)nc2c1CN(S(=O)(=O)C1CC1)C2`, which IC50 [1] is on record?
A: 2.47 µM

Q: Which IC50 [1] does the source give for `C[C@@H]1COCCN1c1nc(-c2c[nH]c3ccccc23)nc2c1CN(C(=O)C(C)(C)C)C2` here?
A: 0.025 µM

Q: For `C[C@@H]1COCCN1c1nc(-c2c[nH]c3ccccc23)nc2c1CN(C(=O)C(C)(C)C(F)(F)F)C2`, which IC50 [1] is on record?
A: 0.038 µM

Q: Which IC50 [1] does the source give for `C[C@@H]1COCCN1c1nc(-c2c[nH]c3ccccc23)nc2c1CN(S(=O)(=O)N(C)C)C2` here?
A: 0.018 µM

Q: Which IC50 [1] does the source give for `C[C@@H]1COCCN1c1nc(-c2cc[nH]n2)nc2c1CN(S(=O)(=O)C1CC1)C2` here?
A: > 10 µM
